Assay results reported in patent US9079863B2, “Crystalline forms for 5-amino-2,3-dihydrophthalazine-1,4-dione sodium salt, pharmaceutical preparations containing the same and method for the production of said forms” (METRIOPHARM AG, priority 2010, dated 2015).
Counter-ions that a name gives are not always drawn. Like-named read-outs stand apart in the source and are kept apart here.

Assays:
S. pyogenes [1] = settings: for Germ load (CFU) Blood MW / Germ load (CFU) Liver MW: 48 hours after the infection, sodium salt
Protocol: (§1) In a mouse model of the Gram-positive sepsis (infection with S. pyogenes) the therapeutic usability of the crystal forms I and II of the 5-amino-2,3-dihydrophthalazine-1,4-dione sodium salt was tested. The administration of active ingredient was made parenterally 6 hours after the infection occurred. A second administration of active ingredient was made 24 hours after the first application. The test was completed 48 hours after the infection. For both forms (substance groups) three different doses were used. The mice obtained 2, 20 or 200 μg each of form I or form II per animal and application.
(§2) The individual treatment groups comprised 5 animals each, and for the not infected controls two repetitions and for the infected controls and that groups that contained form II four repetitions were made, so that in total 180 animals were in the test.
In the sepsis model described in Example 3, the influence of crystal forms II and I of the 5-amino-2,3-dihydrophthalazine-1,4-dione sodium salt on the germ load of the mice infected with S. pyogenes in blood and liver was tested. The test was completed 48 hours after the infection, and the germ load (CFU) existing at this time in blood and liver was determined (see Table).

[2] = tested on: isolated mouse bone marrow macrophages
Protocol: For this purpose, isolated mouse bone marrow macrophages were first treated with form II in concentrations of 2, 20 or 200 μg/mL and stimulated 1 h after treatment with 100 ng/mL or 10 ng/mL LPS. The supernatants were collected 24 h later, and the concentration of TNF-alpha and IL-6 was measured. Not stimulated macrophages, not stimulated macrophages treated with 200 μg/mL form II and LPS-stimulated macrophages (10 or 100 ng/mL LPS) were used as controls.

[3] = healthy mice
Protocol: as §1
Blood taking occurred after 48 hours at the end of the second application day.

S. pyogenes [4] = settings: 48 hours after the infection
Protocol: as §1

[5] = healthy mice, end of the second application day
From the text: When administering form I and form II to healthy mice, it was investigated, whether and which influence the application has on certain liver enzymes, in particular the transaminases GOT (AST) and GPT (ALT). Blood taking occurred at the end of the second application day.

[6] = 0.25 g in 10 mL H2O VE, stirring 500 rpm, 25° C., first minutes after addition; sodium salt
Protocol: The complete dissolution of 0.25 g form I or form II, respectively, in 10 mL H2O VE was achieved under stirring (500 rpm) at 25° C.

physchem = settings: saturated solution
Protocol: Further, the solubility of the crystalline forms in a saturated solution was determined.

[7] = not infected mice; for Weight development/increase MW: over two days
Protocol: as §1, §2
It is known that the toxicity of substances in an animal test with growing-up mice or rate can influence the weight development.

S. pyogenes [8] = settings: 48 hours after the infection; remark: listed apart in the source
Protocol: as §1, §2
In the sepsis model described in Example 3, the influence the crystal forms II and I of the 5-amino-2,3-dihydrophthalazine-1,4-dione sodium, salt on the probability of survival of the mice infected with S. pyogenes was tested.

[9] = for Disintegration temperature: 30-500° C. in synthetic air (4 N2: 1 O2), sodium salt
Protocol: (Table 5). The solid phase transformation of the dihydrate according to U.S. Pat. No. 6,483,326 B1 was measured by means of the simultaneous thermogravimetry-differential thermal analysis with a Linseis L81-077 coupled with mass spectroscopy measurement with a Netzsch STA 449 C thermobalance, with MS and FTIR coupling at 30-300° C. under helium. The disintegration temperatures of forms I-II were determined with the same device at 30-500° C. in synthetic air (4 N2: 1 O2). The data were analyzed with the factory-set software Proteus.

S. pyogenes [10] = settings: infected mice, sodium salt; for Weight development/increase Total MW: complete test time 48 h, survivors
Protocol: as §1, §2
In the sepsis model described in Example 3, the influence of crystal forms I and II of the 5-amino-2,3-dihydrophthalazine-1,4-dione sodium salt on the weight development of mice infected with S. pyogenes was tested. The development of the body weight during an acute infection may supply important predictive information.

[11] = tested on: stimulated murine macrophages; settings: 1 μg/mL LPS with 100 μg/mL
Protocol: These were measured in the combination of 2 μg/mL active ingredient with macrophages stimulated with 100 ng/mL LPS as well as in the group of the macrophages stimulated with 10 ng/mL in the active ingredient concentration with 20 μg/mL.

[12] = dose 2 μg, LPS 10 ng/mL, supernatant 24 h
[13] = dose 2 μg, LPS 100 ng/mL, supernatant 24 h
[14] = dose 20 μg, LPS 10 ng/mL, supernatant 24 h
[15] = dose 20 μg, LPS 100 ng/mL, supernatant 24 h
[16] = dose 200 μg, LPS 10 ng/mL, supernatant 24 h
[17] = dose 200 μg, LPS 100 ng/mL, supernatant 24 h
[18] = dose 200 μg, not stimulated (no LPS)

Nc1cccc2c(=O)[nH][nH]c(=O)c12 [Form II, 5-amino-2,3-dihydrophthalazine-1,4-dione sodium salt]
Germ load (CFU) Blood MW (S. pyogenes [1]; 2 μg): 5.96 log/mL | Germ load (CFU) Liver MW (S. pyogenes [1]; 2 μg): 6.13 log/g | Germ load (CFU) Blood MW (S. pyogenes [1]; 20 μg): 5.88 log/mL | Germ load (CFU) Liver MW (S. pyogenes [1]; 20 μg): 6.79 log/g | Germ load (CFU) Blood MW (S. pyogenes [1]; 200 μg): 5.54 log/mL | Germ load (CFU) Liver MW (S. pyogenes [1]; 200 μg): 6.14 log/g | Germ load (CFU) Blood MW (S. pyogenes [1]; all doses (total)): 5.80 log/mL | Germ load (CFU) Liver MW (S. pyogenes [1]; all doses (total)): 6.36 log/g | Germ count in the blood compared to the controls (S. pyogenes [1]; highest dose): tendentious germ count reduction | Change of TNF-alpha ([2]; 10 ng/mL LPS, 200 μg/mL): significant reduction | Change of TNF-alpha concentration ([2]; 100 ng/mL LPS, all active ingredient concentrations): significant reduction | Change of IL-6 values ([2]; 2 μg/mL with 100 ng/mL LPS): significant reductions | Change of IL-6 values ([2]; 20 μg/mL with 10 ng/mL LPS): significant reductions | IL-6 MW [2, 12]: 3.93 ng/mL | TNF-alpha MW [2, 12]: 8.38 ng/mL | IL-6 MW [2, 13]: 2.67 ng/mL | TNF-alpha MW [2, 13]: 7.40 ng/mL | IL-6 MW [2, 14]: 1.61 ng/mL | TNF-alpha MW [2, 14]: 9.80 ng/mL | IL-6 MW [2, 15]: 4.28 ng/mL | TNF-alpha MW [2, 15]: 9.06 ng/mL | IL-6 MW [2, 16]: 3.42 ng/mL | TNF-alpha MW [2, 16]: 6.76 ng/mL | IL-6 MW [2, 17]: 4.00 ng/mL | TNF-alpha MW [2, 17]: 7.69 ng/mL | IL-6 MW [2, 18]: 0.00 ng/mL | TNF-alpha MW [2, 18]: 0.00 ng/mL | Immunostimulating effect on not LPS-induced macrophages ([2]; not LPS-induced): could not be shown | TNF-alpha MW ([3]; 2 μg, blood after 48 hours, sodium salt): 0.0 pg/mL | TNF-alpha MW ([3]; 20 μg, blood after 48 hours, sodium salt): 0.0 pg/mL | TNF-alpha MW ([3]; 200 μg, blood after 48 hours, sodium salt): 16.94 pg/mL | TNF-alpha MW ([3]; all doses (total), blood after 48 hours, sodium salt): 5.65 pg/mL | IL-6 increase ([3]; blood after 48 hours): neither in the substance groups nor in the control groups increases could be found | TNF-alpha increase ([3]; compared to the other groups, sodium salt): do not cause a relevant increase | IL-6 in infected mice (S. pyogenes [4]; not confirmed in all repetitions): in part distinct tendencies of an IL-6 reduction | Liver enzyme values GOT (AST) and GPT (ALT) (S. pyogenes [4]; infected mice, some repetitions only): tendencies to reduce the liver enzyme values | Transaminases GOT (AST) and GPT (ALT) [5]: Distinct differences between the groups could not be found | Initial dissolution rate [6]: higher than that of form I | Solubility (physchem; in water at room temperature, sodium salt): 252 mg/mL | Solubility in comparison (physchem): more soluble than form I | Toxicity judged from weight development [7]: do not have any toxicity or at most a very small one | Weight development/increase MW ([7]; 2 μg per animal and application, parenteral, sodium salt): -0.14 g | Weight development/increase MW ([7]; 20 μg per animal and application, parenteral, sodium salt): 1.43 g | Weight development/increase MW ([7]; 200 μg per animal and application, parenteral, sodium salt): 0.50 g | Weight development/increase MW ([7]; all doses (total)): 0.59 g | Share of surviving mice (S. pyogenes [8]; 2 μg, sodium salt): 90% | Share of surviving mice (S. pyogenes [8]; 20 μg): 80% | Share of surviving mice (S. pyogenes [8]; 200 μg, sodium salt): 70% | Survival compared to the controls (S. pyogenes [8]): increase of the share of surviving animals | Share of surviving mice (S. pyogenes [8]; all doses (total)): 80% | Disintegration temperature ([9]; listed as form II): 385 °C | Disintegration temperature [9]: 385 °C ± 10 °C | Time for which the crystalline form is stable ([9]; room temperature (25° C.) and 40° C.): at least two | Weight development/increase Total MW (S. pyogenes [10]; 2 μg): -2.02 g | Weight development/increase Day 1 MW (S. pyogenes [10]; 2 μg): -0.57 g | Weight development/increase Total MW (S. pyogenes [10]; 20 μg): -1.69 g | Weight development/increase Day 1 MW (S. pyogenes [10]; 20 μg): -0.55 g | Weight development/increase Total MW (S. pyogenes [10]; 200 μg): -1.86 g | Weight development/increase Day 1 MW (S. pyogenes [10]; 200 μg): -0.72 g | Weight development/increase Total MW (S. pyogenes [10]; all doses (total)): -1.86 g | Weight development/increase Day 1 MW (S. pyogenes [10]; all doses (total)): -0.62 g | Effect on IL-6 values [11]: immunodepressive effect
